Data reported in patent US8222297B2, “Aniline or phenol mustards linked to DNA-affinic molecules or water-soluble aromatic rings and their use as cancer therapeutic agents” (Academia Sinica, priority 2007, dated 2012).
Values belong to the compound of their own block, whether it stands above or below them.

How the values were obtained:
[1] = unpublished results of the applicant
[2] = test system: various human leukemia and solid tumor; conditions: in vitro and in vivo; cited from earlier work
[3] = test system: Human mammary carcinoma (MX-1) tumor cells; experiment: In vitro cytotoxicity, SRB assay; conditions: read-out: IC50 MX-1; SRB assay, 72-hr incubation
[4] = test system: Human colon carcinoma HCT-116 cells; experiment: In vitro cytotoxicity, SRB assay; conditions: read-out: IC50 HCT-116; SRB assay, 72-hr incubation
[5] = test system: CCRF-CEM human lymphoblastic leukemia cells; experiment: In vitro cytotoxicity, XTT assay; conditions: read-out: IC50 CCRF-CEM; XTT assay, 72-hr incubation
[6] = test system: human mammary carcinoma MX-1 xenograft; experiment: Antitumor therapeutic effect in nude mice bearing MX-1 xenograft; format: in vivo; conditions: for log cell kill: estimated by Eq. 4 from remission time; for Duration complete remission maintained without relapse: one cycle 5-dose-treatment, 3 out of 3 mice
Protocol: (§1) Athymic nude mice bearing the nu/nu gene were used for human breast tumor MX-1 xenograft (FIGS. 3 and 4) and human brain glioma U87 GM xenograft (FIG. 5). Nude mice were obtained from National Cancer Institute, Frederick, Md. Male mice 6 weeks old or older weighing 22 g or more were used for experiments with subcutaneous tumor inoculation as described previously.^62 Drug was administrated via the tail vein by iv injection. Tumor volumes were assessed by measuring length×width×height (or width) by using caliper. Vehicle used was 20 μL DMSO in 180 μL saline. All animal studies were conducted in accordance with the guidelines of the U.S. National Institutes of Health Guide for the Care and Use of Animals and the protocol approved by the Institutional Animal Care and Use Committee.
(§2) Animals. Athymic nude mice bearing the nu/nu gene were obtained from NCI, Frederick, Md. and used for all human tumor xenografts. Male nude mice 6 weeks or older weighing 20-24 g or more were used. Compounds were administered via the tail vein for i.v. injection or infusion as described previously.^59 A typical formulation for chemotherapeutic studies for each drug was dissolved in DSMO to make a 25 mg/ml fresh solution, 0.4 ml of this solution was mixed with 0.3 ml of Tween 80, plus 1.3 ml to make 2 ml of 5 mg/ml solution. Bolus injection volume was 0.1-0.2 ml per mouse. Tumor volume was assessed by measuring length×width×height (or width) by using a caliper. For tumor-bearing nude mice during the course of the experiment, the body weight refers to total weight minus the weight of the tumor. All animal studies were conducted in accordance with the guidelines for the National Institute of Health Guide for the Care and Use of Animals and the protocol approved by the Institutional Animal Care and Use Committee.
The therapeutic effects of a drug against human tumor xenografts in nude mice, under the optimal therapeutic conditions but without any lethality due to drug toxicity, the following degrees of therapeutic effects are defined and calculated by the following formula:
[formula] • where T0 is the initial tumor size (in mm^3) at beginning of drug treatment; • Tc is tumor size of untreated control group on a given date; and • Tx is tumor size of the drug treated group on a given date.
[formula] • Where T0 and Tx are as specified as above. • Tumor disappearance (complete remission or CR) is defined by the effect where [Tx=0] for a period of time (in days) for a proportion of animals (NCR/N), where N is the total number of animals in the group, and NCR is the number of mice in the group that achieved CR. • Tumor relapse is quantitatively calculated by [The Day tumor relapsed(Drelp)−The Day CR achieved(DCR)] (Eq. 3) • for a proportion of animals (Nrelp/N) where N is the total number of animals in the group, and Nrelp is the number of the mice in the group that relapsed. • The log cell kill (LCK) of the tumor tissue after a given chemotherapy that reached CR is estimated by: LCK=log [2^(Tumor remission in days/Tumor doubling time in days)] (Eq. 4)

CCRF-CEM/Taxol = experiment: In vitro cytotoxicity, XTT assay, taxol-resistant subline; conditions: for fold of cross-resistant, CCRF-CEM/Taxol vs IC50 of parent cell line: number in brackets; for IC50: read-out: IC50 CCRF-CEM/Taxol, XTT assay, 72-hr incubation
[7] = test system: human glioma U87 GM s.c. xenograft; experiment: Therapeutic effect in nude mice bearing U87 glioma xenograft; format: in vivo
Protocol: as §1
The therapeutic effects of N-mustard compounds, BO-1049, 1051 and 1055, against human glioma U87 GM s.c. xenograft in nude mice were given in FIG. 5, A and B. U87 glioma is known to be refractory tumor that can not be effectively treated with cell-cycle specific anti-tumor drugs such as taxol, epothilones, or arabinosylcytosine. However, cell-cycle non-specific drugs such as alkylating agent, cyclophosphamide or BCNU, yields better therapeutic results. […] However, upon 6 days of recession of treatment with BO-1049 or BO-1055, the tumor began to regrow.
as §2

[8] = 150 mg/kg, Q2D×5, i.v.-injection

Compound: OCc1cc(Nc2c3ccccc3nc3ccccc23)cc(OCCN(CCCl)CCCl)c1 [BO-0742]
half-life in mice [1]: about 25 min
cytotoxicity relative to AHMA (times more cytotoxic) [2]: > 100 time

Compound: 1-{4-[Bis-(2-chloroethyl)amino]phenyl-3-[6-methoxy-2-(4-methoxyphenyl)quinolin-4-yl]urea [BO-1049]
IC50 [3]: 1840 nM
IC50 [4]: 3740 nM
IC50 [5]: 366 nM
Tumor remission achieved ([6]; doses and schedules as in Table 2 (30-150 mg/kg, i.v.)): complete tumor remission
log cell kill [6]: > 4.1
Duration complete remission maintained without relapse [6]: over 70 days
fold of cross-resistant, CCRF-CEM/Taxol vs IC50 of parent cell line (CCRF-CEM/Taxol): 1.6 x
IC50 (CCRF-CEM/Taxol): 587 nM
time after end of treatment at which tumor began to regrow [7, 8]: 6 days
tumor-growth suppression [7, 8]: complete tumor-growth suppression
therapeutic effect compared with cyclophosphamide ([7]; BO-1049 150, BO-1051 100, BO-1055 30 mg/kg vs cyclophosphamide 80 mg/kg, all Q2D×5, parallel study): superior therapeutic effects than cyclophosphamide

Compound: CN(C)CCNC(=O)c1cccc(NC(=O)Nc2ccc(N(CCCl)CCCl)cc2)c1.Cl [BO-1055, 3-(3-{4-[Bis(2-chloroethyl)amino]phenyl}ureido)-N-(2-dimethylaminoethyl)benzamide hydrochloride]
IC50 [3]: 551 nM
IC50 [4]: 661 nM
IC50 [5]: 127 nM
Maximal body-weight loss (%) ([6]; 30 mg/kg, Q2D × 5, i.v.): 15%
log cell kill [6]: > 4.1
Duration complete remission maintained without relapse [6]: over 70 days
fold of cross-resistant, CCRF-CEM/Taxol vs IC50 of parent cell line (CCRF-CEM/Taxol): 15.4 x
IC50 (CCRF-CEM/Taxol): 1200 nM
time after end of treatment at which tumor began to regrow ([7]; 30 mg/kg, Q2D×5, i.v.-injection): 6 days

Compound: COc1cc(N)cc(Nc2c3ccccc3nc3c(OCCN(CCCl)CCCl)cccc23)c1.Cl [BO-0940, N1-(4-{2-[bis(2-chloroethyl)-amino]-ethoxy}acridin-9-yl)-5-methoxybenzene-1,3-diamine hydrochloride]
cytotoxicity relative to AHMA (times more cytotoxic) [2]: > 100 time

Second part, the compound after the results:

melting point: 224 to 225 °C
Compound: COc1ccc2nc(C)cc(NNC(=O)Nc3ccc(N(CCCl)CCCl)cc3)c2c1

melting point: 235 to 236 °C
Compound: Cc1cc(NNC(=O)Nc2ccc(N(CCCl)CCCl)cc2)c2ccccc2n1

melting point: 183 to 184 °C
Compound: Cc1cc(Oc2ccc(NC(=O)Oc3ccc(N(CCCl)CCCl)cc3)cc2)c2cc3c(cc2n1)OCO3

melting point: 217 to 218 °C
Compound: Cc1cc(Oc2ccc(NC(=O)Nc3ccc(N(CCCl)CCCl)cc3)cc2)c2cc3c(cc2n1)OCO3
